Species on record: Rattus norvegicus
Test: Open TG-GATES - Regimen: Single
Format: toxicity, organism-based, Sprague-Dawley
Design: regimen Single, gender Male, age 6 weeks
Details: in vivo, po, 0 mg/kg, route gavage, dose level Control; for APTT / Bas / Eos / Fbg / Hb / Ht / Lym / MCH / MCHC / MCV / Mono / Neu / PT / Plat / RBC / Ret / WBC: tissue Blood; for KIDNEY_L / KIDNEY_R / KIDNEY_TOTAL: tissue Kidney; for LIVER: tissue Liver; for A/G / ALP / ALT / AST / BUN / CRE / Ca / Cl / DBIL / GLC / IP / K / LDH / Na / PL / RALB / TBIL / TC / TG / TP / gamma-GTP: tissue Plasma

CCOC(=O)[C@H](CCc1ccccc1)N[C@@H](C)C(=O)N1CCC[C@H]1C(=O)O showed a TERMINAL_BW (3 h) of 219.5 g, an APTT (3 h) of 16.4 s and a Bas (3 h) of 0%. For the same compound, the Eos (3 h) was 1%, the Fbg (3 h) was 205.6 mg/dL and the Hb (3 h) was 13.1 g/dL. For the same compound, the Ht (3 h) was 39.6%, the Lym (3 h) was 78.2% and the MCH (3 h) was 21.9 pg. The MCHC (3 h) was 33%, the MCV (3 h) was 66.3 fL and the Mono (3 h) was 8.2%. It also gave a Neu (3 h) of 13%, a PT (3 h) of 12.1 s and a Plat (3 h) of 115.4 x10_4/uL. For the same compound, the RBC (3 h) was 596.8 x10_4/ul, the Ret (3 h) was 9.2% and the WBC (3 h) was 96.8 x10_2/uL. It also gave a KIDNEY_L (3 h) of 1 g, a KIDNEY_R (3 h) of 1 g and a KIDNEY_TOTAL (3 h) of 2 g. The LIVER (3 h) was 10.5 g, the A/G (3 h) was 2.2 and the ALP (3 h) was 725.4 IU/L. For the same compound, the ALT (3 h) was 37.6 IU/L, the AST (3 h) was 66.2 IU/L and the BUN (3 h) was 13.8 mg/dL. It also gave a CRE (3 h) of 0.5 mg/dL, a Ca (3 h) of 11 mg/dL and a Cl (3 h) of 105.4 meq/L. The DBIL (3 h) was 0.008 mg/dL, the GLC (3 h) was 196.6 mg/dL and the IP (3 h) was 10.2 mg/dL. The K (3 h) was 4.8 meq/L, the LDH (3 h) was 79.2 IU/L and the Na (3 h) was 140.2 meq/L. For the same compound, the PL (3 h) was 146 mg/dL, the RALB (3 h) was 3.7 g/dL and the TBIL (3 h) was 0.3 mg/dL. It also gave a TC (3 h) of 77 mg/dL, a TG (3 h) of 70.8 mg/dL and a TP (3 h) of 5.3 g/dL. The gamma-GTP (3 h) was 1.4 IU/L, the TERMINAL_BW (6 h) was 212.8 g and the APTT (6 h) was 16.4 s. It also gave a Bas (6 h) of 0%, an Eos (6 h) of 1% and a Fbg (6 h) of 205.2 mg/dL. For the same compound, the Hb (6 h) was 13.2 g/dL, the Ht (6 h) was 39.9% and the Lym (6 h) was 76.2%. For the same compound, the MCH (6 h) was 21.6 pg, the MCHC (6 h) was 33% and the MCV (6 h) was 65.4 fL. For the same compound, the Mono (6 h) was 6.4%, the Neu (6 h) was 16.6% and the PT (6 h) was 12.2 s. It also gave a Plat (6 h) of 116.2 x10_4/uL, an RBC (6 h) of 609.4 x10_4/ul and a Ret (6 h) of 8.4%. The WBC (6 h) was 118.4 x10_2/uL, the KIDNEY_L (6 h) was 0.9 g and the KIDNEY_R (6 h) was 0.9 g. For the same compound, the KIDNEY_TOTAL (6 h) was 1.9 g, the LIVER (6 h) was 9.5 g and the A/G (6 h) was 2.2. The ALP (6 h) was 837.6 IU/L, the ALT (6 h) was 34.6 IU/L and the AST (6 h) was 65.6 IU/L. It also gave a BUN (6 h) of 9.8 mg/dL, a CRE (6 h) of 0.5 mg/dL and a Ca (6 h) of 10.8 mg/dL. The Cl (6 h) was 105.2 meq/L, the DBIL (6 h) was 0.022 mg/dL and the GLC (6 h) was 198.6 mg/dL. For the same compound, the IP (6 h) was 9.9 mg/dL, the K (6 h) was 4.7 meq/L and the LDH (6 h) was 74 IU/L. It also gave a Na (6 h) of 139.4 meq/L, a PL (6 h) of 130.6 mg/dL and an RALB (6 h) of 3.7 g/dL. The TBIL (6 h) was 0.4 mg/dL, the TC (6 h) was 73 mg/dL and the TG (6 h) was 46.8 mg/dL. For the same compound, the TP (6 h) was 5.4 g/dL, the gamma-GTP (6 h) was 1.6 IU/L and the TERMINAL_BW (9 h) was 215 g. For the same compound, the APTT (9 h) was 16.5 s, the Bas (9 h) was 0% and the Eos (9 h) was 1.2%. The Fbg (9 h) was 215.4 mg/dL, the Hb (9 h) was 13 g/dL and the Ht (9 h) was 39.6%. For the same compound, the Lym (9 h) was 81.4%, the MCH (9 h) was 21.9 pg and the MCHC (9 h) was 32.8%. For the same compound, the MCV (9 h) was 66.8 fL, the Mono (9 h) was 5% and the Neu (9 h) was 12.8%. It also gave a PT (9 h) of 11.7 s, a Plat (9 h) of 112.2 x10_4/uL and an RBC (9 h) of 593.2 x10_4/ul. For the same compound, the Ret (9 h) was 8.7%, the WBC (9 h) was 113.3 x10_2/uL and the KIDNEY_L (9 h) was 1 g. The KIDNEY_R (9 h) was 1 g, the KIDNEY_TOTAL (9 h) was 1.9 g and the LIVER (9 h) was 9.4 g. For the same compound, the A/G (9 h) was 2.1, the ALP (9 h) was 772.2 IU/L and the ALT (9 h) was 31.2 IU/L. The AST (9 h) was 60.8 IU/L, the BUN (9 h) was 13.6 mg/dL and the CRE (9 h) was 0.4 mg/dL. It also gave a Ca (9 h) of 10.7 mg/dL, a Cl (9 h) of 106.6 meq/L and a DBIL (9 h) of 0.022 mg/dL. It also gave a GLC (9 h) of 192.6 mg/dL, an IP (9 h) of 10.1 mg/dL and a K (9 h) of 4.8 meq/L. For the same compound, the LDH (9 h) was 69.8 IU/L, the Na (9 h) was 139 meq/L and the PL (9 h) was 133.4 mg/dL. For the same compound, the RALB (9 h) was 3.8 g/dL, the TBIL (9 h) was 0.4 mg/dL and the TC (9 h) was 69.6 mg/dL. For the same compound, the TG (9 h) was 49.2 mg/dL, the TP (9 h) was 5.5 g/dL and the gamma-GTP (9 h) was 1.6 IU/L. It also gave a TERMINAL_BW (24 h) of 230.9 g, an APTT (24 h) of 16.3 s and a Bas (24 h) of 0%. The Eos (24 h) was 1.4%, the Fbg (24 h) was 203.8 mg/dL and the Hb (24 h) was 13.2 g/dL. It also gave a Ht (24 h) of 39.8%, a Lym (24 h) of 71.6% and an MCH (24 h) of 21.6 pg. For the same compound, the MCHC (24 h) was 33.1%, the MCV (24 h) was 65.3 fL and the Mono (24 h) was 8.2%. For the same compound, the Neu (24 h) was 19%, the PT (24 h) was 11.2 s and the Plat (24 h) was 117.1 x10_4/uL. The RBC (24 h) was 609.4 x10_4/ul, the Ret (24 h) was 8.3% and the WBC (24 h) was 114 x10_2/uL. It also gave a KIDNEY_L (24 h) of 1.1 g, a KIDNEY_R (24 h) of 1 g and a KIDNEY_TOTAL (24 h) of 2.1 g. For the same compound, the LIVER (24 h) was 11 g, the A/G (24 h) was 2.4 and the ALP (24 h) was 834.2 IU/L. It also gave an ALT (24 h) of 39.8 IU/L, an AST (24 h) of 62.6 IU/L and a BUN (24 h) of 18 mg/dL. The CRE (24 h) was 0.5 mg/dL, the Ca (24 h) was 10.9 mg/dL and the Cl (24 h) was 106.4 meq/L. The DBIL (24 h) was 0.012 mg/dL, the GLC (24 h) was 198.8 mg/dL and the IP (24 h) was 8.5 mg/dL. The K (24 h) was 5.2 meq/L, the LDH (24 h) was 86.4 IU/L and the Na (24 h) was 141 meq/L. It also gave a PL (24 h) of 155 mg/dL, an RALB (24 h) of 3.9 g/dL and a TBIL (24 h) of 0.4 mg/dL. The TC (24 h) was 80 mg/dL, the TG (24 h) was 84.6 mg/dL and the TP (24 h) was 5.5 g/dL. The gamma-GTP (24 h) was 1.2 IU/L.
